The values below come from patent US12378243B2, “Quinoline compounds as inhibitors of KRAS” (Incyte Corporation, priority 2021, dated 2025).

For one data set, the target named is KRAS G12D (Homo sapiens, UniProt P01116, G12D). Briefly: GDP-GTP exchange assay, KRAS G12D. Format: biochemical. Conditions: bodipy-loaded KRAS G12D 2.5 nM, GppNHp 500 uM, SOS1 150 nM; 4 hours pre-incubation, 2 hours incubation; read-out: G12D_exchange. The gist of the method: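 Nucleotide exchange started with 1 mM GppNHp and 300 nM SOS1, then 2 h at ambient temperature. IC50 from four-parameter logistic fit with variable Hill slope.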

The next data set deals with KRAS G12V mutant (Homo sapiens, UniProt P01116, G12V). Briefly: GDP-GTP exchange assay, KRAS G12V. In kind it is biochemical. To be noted: bodipy loaded KRAS G12V 2.5 nM; 3 hours incubation after adding GppNHp-SOS1 mixture; read-out: G12V_exchange.
A further data set deals with Caco-2 cells. Briefly: Caco2 assay (permeability, A-B). To be noted: Table 4; Papp absorptive direction (A-B), test compound 50 μM, 120 minutes at 37° C. Format: in vitro ADME. The gist of the method: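 Caco-2 monolayers grown 22-25 days on Transwells, used only at TEER ≥300 Ω·cm^2. Compound at 50 μM in HBSS added apically, receiver HBSS with 4% BSA; 120 min at 37 °C. LCMS quantification; Papp from receiver flux slope, membrane area and initial donor amount.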
(Caco-2 monolayers are a common model of the intestinal barrier.)

KRAS G12V mutant, sequence (P01116 1-188 isoform P01116-2 G12V): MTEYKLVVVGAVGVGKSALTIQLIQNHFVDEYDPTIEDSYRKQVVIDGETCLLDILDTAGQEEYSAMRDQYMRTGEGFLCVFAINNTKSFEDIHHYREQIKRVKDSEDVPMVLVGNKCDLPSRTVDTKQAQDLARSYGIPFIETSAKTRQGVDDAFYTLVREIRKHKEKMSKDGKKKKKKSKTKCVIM
KRAS G12D, sequence (P01116 1-188 isoform P01116-2 G12D): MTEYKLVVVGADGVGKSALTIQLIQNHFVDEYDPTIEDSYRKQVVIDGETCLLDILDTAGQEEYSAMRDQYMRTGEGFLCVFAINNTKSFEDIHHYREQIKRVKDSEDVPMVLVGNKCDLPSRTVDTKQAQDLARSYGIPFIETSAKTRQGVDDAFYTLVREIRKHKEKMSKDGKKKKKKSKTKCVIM

For `N#CCCc1cc2c(ncc3cc([C@H]4CCCN4C(=O)N4CC(F)(F)C4)n([C@H]4[C@H]5CN[C@@H]4C5)c32)c(F)c1-c1cccc(Cl)c1Cl` [Example 43, 3-(1-((1R,4R,5S)-2-Azabicyclo[2.1.1]hexan-5-yl)-7-(2,3-dichlorophenyl)-2-((R)-1-(3,3-difluoroazetidine-1-carbonyl)pyrrolidin-2-yl)-6-fluoro-1H-pyrrolo[3,2-c]quinolin-8-yl)propanenitrile], the IC50 on KRAS G12D and at KRAS G12V mutant was less than 100 nM in each case. Moreover, in the data set on Caco-2 cells, the Caco-2 result is “+++ (a Caco-2 value of >1)”.

In the case of `CNC(=O)c1ccc(-c2nc3c(F)c(-c4cccc5ccc(F)cc45)c(CCC#N)cc3c3c2cc([C@@H](C)N2CCOCC2=O)n3[C@H]2[C@H]3CN[C@@H]2C3)cn1` [Example 45, 5-(1-((1R,4R,5S)-2-Azabicyclo[2.1.1]hexan-5-yl)-8-(2-cyanoethyl)-6-fluoro-7-(7-fluoronaphthalen-1-yl)-2-((R)-1-(3-oxomorpholino)ethyl)-1H-pyrrolo[3,2-c]quinolin-4-yl)-N-methylpicolinamide], the IC50 on KRAS G12D and on KRAS G12V mutant was less than 100 nM each time. Also, the Caco-2 entry with Caco-2 cells was “+++ (a Caco-2 value of >1)”.

On to `C[C@H](c1cc2c(-c3ccc(C(C)(C)O)nc3)nc3c(F)c(-c4cccc5ccc(F)cc45)c(CCC#N)cc3c2n1[C@H]1[C@H]2CN[C@@H]1C2)N1CCOCC1=O` [Example 46, 3-(1-((1R,4R,5S)-2-Azabicyclo[2.1.1]hexan-5-yl)-6-fluoro-7-(7-fluoronaphthalen-1-yl)-4-(6-(2-hydroxypropan-2-yl)pyridin-3-yl)-2-((R)-1-(3-oxomorpholino)ethyl)-1H-pyrrolo[3,2-c]quinolin-8-yl)propanenitrile], for which the IC50 at KRAS G12D and at KRAS G12V mutant was less than 100 nM each time. Besides, the Caco-2 result in the data set on Caco-2 cells is “+++ (a Caco-2 value of >1)”.

With `Cc1cnc(-c2nc3c(F)c(-c4cccc5ccc(F)cc45)c(CCC#N)cc3c3c2cc([C@@H](C)N2CCOCC2=O)n3[C@H]2[C@H]3CN[C@@H]2C3)cn1` [Example 47, 3-(1-((1R,4R,5S)-2-Azabicyclo[2.1.1]hexan-5-yl)-6-fluoro-7-(7-fluoronaphthalen-1-yl)-4-(5-methylpyrazin-2-yl)-2-((R)-1-(3-oxomorpholino)ethyl)-1H-pyrrolo[3,2-c]quinolin-8-yl)propanenitrile], the IC50 on KRAS G12D and on KRAS G12V mutant was less than 100 nM each time. In addition, in the data set with Caco-2 cells, the Caco-2 entry is reported as “+++ (a Caco-2 value of >1)”.

On to `COC(=O)N1[C@@H](c2cc3c(-c4ccc(C(=O)N(C)C)nc4)nc4c(F)c(-c5cccc(Cl)c5Cl)c(CCC#N)cc4c3n2[C@H]2[C@H]3CN[C@@H]2C3)C[C@H]2C[C@H]21` [Example 48, Methyl (1R,3R,5R)-3-(1-((1R,4R,5S)-2-azabicyclo[2.1.1]hexan-5-yl)-8-(2-cyanoethyl)-7-(2,3-dichlorophenyl)-4-(6-(dimethylcarbamoyl)pyridin-3-yl)-6-fluoro-1H-pyrrolo[3,2-c]quinolin-2-yl)-2-azabicyclo[3.1.0]hexane-2-carboxylate], for which the IC50 at KRAS G12D and on KRAS G12V mutant was less than 100 nM in each case. The Caco-2 entry in the data set with Caco-2 cells is reported as “++ (a Caco-2 value of >0.5 but ≤1)”.

Consider `Cc1nc2c(F)c(-c3cccc(Cl)c3Cl)c(CCC#N)cc2c2c1cc([C@H]1C[C@H]3C[C@H]3N1C(=O)C1CC1)n2[C@H]1[C@H]2CN[C@@H]1C2` [Example 49, 3-(1-((1R,4R,5S)-2-Azabicyclo[2.1.1]hexan-5-yl)-2-((1R,3R,5R)-2-(cyclopropanecarbonyl)-2-azabicyclo[3.1.0]hexan-3-yl)-7-(2,3-dichlorophenyl)-6-fluoro-4-methyl-1H-pyrrolo[3,2-c]quinolin-8-yl)propanenitrile], for which the IC50 at KRAS G12D and on KRAS G12V mutant was less than 100 nM throughout. Also, the Caco-2 result with Caco-2 cells is “+++ (a Caco-2 value of >1)”.

In the case of `C[C@H](c1cc2c(-c3ccc(C(C)(C)O)nc3)nc3c(F)c(-c4cccc(Cl)c4Cl)c(CCC#N)cc3c2n1[C@H]1[C@H]2CN[C@@H]1C2)n1ccncc1=O` [Example 50, 3-(1-((1R,4R,5S)-2-Azabicyclo[2.1.1]hexan-5-yl)-7-(2,3-dichlorophenyl)-6-fluoro-4-(6-(2-hydroxypropan-2-yl)pyridin-3-yl)-2-((R)-1-(2-oxopyrazin-1(2H)-yl)ethyl)-1H-pyrrolo[3,2-c]quinolin-8-yl)propanenitrile], the IC50 at KRAS G12D and on KRAS G12V mutant was less than 100 nM each time. Also, the Caco-2 result in the data set with Caco-2 cells was “+++ (a Caco-2 value of >1)”.

In the case of `COC(=O)N1C[C@@H](F)C[C@@H]1c1cc2c(-c3ccc(C(C)(C)O)nc3)nc3c(F)c(-c4cccc(Cl)c4Cl)c(CCC#N)cc3c2n1[C@H]1[C@H]2CN[C@@H]1C2` [Example 51, Methyl (2R,4S)-2-(1-((1R,4R,5S)-2-azabicyclo[2.1.1]hexan-5-yl)-8-(2-cyanoethyl)-7-(2,3-dichlorophenyl)-6-fluoro-4-(6-(2-hydroxypropan-2-yl)pyridin-3-yl)-1H-pyrrolo[3,2-c]quinolin-2-yl)-4-fluoropyrrolidine-1-carboxylate], the IC50 at KRAS G12D and at KRAS G12V mutant was less than 100 nM throughout. In addition, the Caco-2 entry in the data set with Caco-2 cells is given as “+++ (a Caco-2 value of >1)”.

Take `COC(=O)N1[C@H](C)CC[C@@H]1c1cc2c(-c3ccc(C(C)(C)O)nc3)nc3c(F)c(-c4cccc(Cl)c4Cl)c(CCC#N)cc3c2n1[C@H]1[C@H]2CN[C@@H]1C2` [Example 52, Methyl (2R,5R)-2-(1-((1R,4R,5S)-2-azabicyclo[2.1.1]hexan-5-yl)-8-(2-cyanoethyl)-7-(2,3-dichlorophenyl)-6-fluoro-4-(6-(2-hydroxypropan-2-yl)pyridin-3-yl)-1H-pyrrolo[3,2-c]quinolin-2-yl)-5-methylpyrrolidine-1-carboxylate]: the IC50 on KRAS G12D and at KRAS G12V mutant was less than 100 nM each time. The Caco-2 entry with Caco-2 cells is “+++ (a Caco-2 value of >1)”.

Regarding `COC(=O)N1CCC[C@@H]1c1c(Cl)c2c(-c3ccc(C(C)(C)O)nc3)nc3c(F)c(-c4cccc(Cl)c4Cl)c(CCC#N)cc3c2n1[C@H]1[C@H]2CN[C@@H]1C2` [Example 53, Methyl (2R)-2-(1-((1R,4R,5S)-2-azabicyclo[2.1.1]hexan-5-yl)-3-chloro-8-(2-cyanoethyl)-7-(2,3-dichlorophenyl)-6-fluoro-4-(6-(2-hydroxypropan-2-yl)pyridin-3-yl)-1H-pyrrolo[3,2-c]quinolin-2-yl)pyrrolidine-1-carboxylate], the IC50 at KRAS G12D and on KRAS G12V mutant was less than 100 nM in each case. Also, the Caco-2 entry in the data set on Caco-2 cells was “+++ (a Caco-2 value of >1)”.

For the compound `COC(=O)N[C@H](C)c1cc2c(C)nc3c(F)c(-c4cccc(Cl)c4Cl)c(CCC#N)cc3c2n1[C@H]1[C@H]2CN[C@@H]1C2` [Example 55, Methyl ((1R)-1-(1-((1R,4R,5S)-2-azabicyclo[2.1.1]hexan-5-yl)-8-(2-cyanoethyl)-7-(2,3-dichlorophenyl)-6-fluoro-4-methyl-1H-pyrrolo[3,2-c]quinolin-2-yl)ethyl)carbamate], the IC50 on KRAS G12D and on KRAS G12V mutant was less than 100 nM each time. Moreover, the Caco-2 result in the data set on Caco-2 cells was “+++ (a Caco-2 value of >1)”.

With `Cc1nc2c(F)c(-c3cccc(Cl)c3Cl)c(CCC#N)cc2c2c1cc([C@@H](C)NC(=O)C(F)F)n2[C@H]1[C@H]2CN[C@@H]1C2` [Example 56, N-((1R)-1-(1-((1R,4R,5S)-2-Azabicyclo[2.1.1]hexan-5-yl)-8-(2-cyanoethyl)-7-(2,3-dichlorophenyl)-6-fluoro-4-methyl-1H-pyrrolo[3,2-c]quinolin-2-yl)ethyl)-2,2-difluoroacetamide], the IC50 on KRAS G12D and on KRAS G12V mutant was less than 100 nM in each case. Also, the Caco-2 entry in the data set on Caco-2 cells is listed as “+++ (a Caco-2 value of >1)”.

On to `Cc1nc2c(F)c(-c3cccc(Cl)c3Cl)c(CCC#N)cc2c2c1cc([C@@H](C)NC(=O)[C@@H]1CCCO1)n2[C@H]1[C@H]2CN[C@@H]1C2` [Example 57, (2S)—N-((1R)-1-(1-((1R,4R,5S)-2-Azabicyclo[2.1.1]hexan-5-yl)-8-(2-cyanoethyl)-7-(2,3-dichlorophenyl)-6-fluoro-4-methyl-1H-pyrrolo[3,2-c]quinolin-2-yl)ethyl)tetrahydrofuran-2-carboxamide], for which the IC50 at KRAS G12D and at KRAS G12V mutant was less than 100 nM each time. Moreover, the Caco-2 result in the data set with Caco-2 cells was “+++ (a Caco-2 value of >1)”.

Regarding `Cc1nc2c(F)c(-c3cccc(Cl)c3Cl)c(CCC#N)cc2c2c1cc([C@@H](C)NS(=O)(=O)C1CC1)n2[C@H]1[C@H]2CN[C@@H]1C2` [Example 58, N-((1R)-1-(1-((1R,4R,5S)-2-Azabicyclo[2.1.1]hexan-5-yl)-8-(2-cyanoethyl)-7-(2,3-dichlorophenyl)-6-fluoro-4-methyl-1H-pyrrolo[3,2-c]quinolin-2-yl)ethyl)cyclopropanesulfonamide], the IC50 on KRAS G12D and at KRAS G12V mutant was less than 100 nM in each case. In addition, the Caco-2 entry with Caco-2 cells is listed as “++ (a Caco-2 value of >0.5 but ≤1)”.

With `Cc1nc2c(F)c(-c3cccc(Cl)c3Cl)c(CCC#N)cc2c2c1cc([C@@H](C)NC(=O)c1cscn1)n2[C@H]1[C@H]2CN[C@@H]1C2` [Example 59, N-((1R)-1-(1-((1R,4R,5S)-2-Azabicyclo[2.1.1]hexan-5-yl)-8-(2-cyanoethyl)-7-(2,3-dichlorophenyl)-6-fluoro-4-methyl-1H-pyrrolo[3,2-c]quinolin-2-yl)ethyl)thiazole-4-carboxamide], the IC50 at KRAS G12D and at KRAS G12V mutant was less than 100 nM in each case. Moreover, the Caco-2 entry in the data set with Caco-2 cells is on record as “+++ (a Caco-2 value of >1)”.
